The results in this text go back to BindingDB's records for doi:10.1021/bi00180a024 (Medical University of South Carolina, 1994).

The experiment addresses T1, 5-hydroxytryptamine receptor 1A (Homo sapiens, UniProt P08908).
T1 sequence (P08908 whole entry): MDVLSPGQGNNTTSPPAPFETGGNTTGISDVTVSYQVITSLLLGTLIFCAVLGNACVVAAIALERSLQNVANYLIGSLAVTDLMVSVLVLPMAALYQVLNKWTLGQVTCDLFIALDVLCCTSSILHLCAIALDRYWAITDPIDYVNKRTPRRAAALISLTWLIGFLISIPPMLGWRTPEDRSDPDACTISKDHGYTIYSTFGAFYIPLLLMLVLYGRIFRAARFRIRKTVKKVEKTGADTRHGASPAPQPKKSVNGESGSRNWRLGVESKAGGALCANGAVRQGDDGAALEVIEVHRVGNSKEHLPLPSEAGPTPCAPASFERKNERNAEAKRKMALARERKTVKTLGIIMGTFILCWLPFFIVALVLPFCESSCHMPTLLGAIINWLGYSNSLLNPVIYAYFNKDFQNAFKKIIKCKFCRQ

`O=C1c2ccccc2S(=O)(=O)N1CCCCN1CCN(c2ncccn2)CC1` [1,1-Dioxo-2-[4-(4-pyrimidin-2-yl-piperazin-1-yl)-butyl]-1,2-dihydro-1lambda*6*-benzo[d]isothiazol-3-one] gave a Ki of 130 nM.
